Measured values: a melting point compilation (Tetko et al.; mined from patent text by program, amines drawn as free bases though some values may be those of a salt)

Row | melting point [°C] | SMILES
1 | 104 to 106 | COC(=O)c1ccccc1C=Cc1ccc(Br)cc1
2 | 226 to 228 | CCOC(=O)c1sc(-c2cc3cccc(NS(=O)(=O)c4cccs4)c3[nH]2)nc1C
3 | 78 to 79 | CCNC(=O)C(C)n1cc(C)c(-c2ccccc2)n1 (configuration not stated)
4 | 192 to 194 | COC(=O)c1ccc2c(=O)[nH]c(=O)n(CCCCN3CCC(OC(c4ccccc4)c4ccccc4)CC3)c2c1
5 | 255 | NC(=O)n1nc(-c2ccccc2)cc1N
6 | 141 to 142 | O=C(O)CCC/C=C\C[C@@H]1[C@H]2CC[C@H](C2)[C@H]1NC(=O)c1csc2ccc(O)cc12
7 | 90 to 91 | CCCCCCCC(=O)OC(C)OC1=C(C(=O)Nc2ccccn2)N(C)S(=O)(=O)c2ccccc21 (configuration not stated)
8 | 176 to 177 | COc1ccc2c(c1)cc(C(=O)Nc1ccc3c(ccn3C)c1)n2Cc1cccc(C(F)(F)F)c1
9 | 127 to 128 | CCOC(=O)c1ncn(Cc2ccccc2)c1OC
10 | 63 to 63.5 | CCCCCCCCC(=O)Nc1cccc([N+](=O)[O-])c1
11 | 189 to 190 | CC(C)Cn1c(CNC(=O)OC(C)(C)C)c(-c2cccs2)c2cc(C#N)ccc2c1=O
12 | 193 to 195 | CCCCCN1C(=O)C(O)(c2cc3c(cc2O)OCO3)c2cnccc21 (configuration not stated)
13 | 246 to 249 | CCOC(=O)C1=C(C(F)(F)F)COc2ccc3ccccc3c21
14 | 168 to 170 | CCCn1c(=O)c2nc(C(C)Cc3ccc(OCC(=O)O)cc3)[nH]c2n(CCC)c1=O (configuration not stated)
15 | 135 to 137 | C#CCOc1ccc(CC(=O)O)cc1[N+](=O)[O-]
16 | 119 to 120 | CCCC1CCN(CCCCC(=O)c2cc(Cl)c(N)cc2OCc2cc(OC)cc(OC)c2)CC1
17 | 200 to 201 | N#Cc1ccc(NC(=O)CCCC(=O)O)cc1
18 | 88 to 90 | O=C(O)COCCOCCN1C(=O)c2ccccc2C1=O
19 | 111 to 118 | O=C(COc1ccc(Cl)cc1Cl)OCCOC(=O)c1cc(Oc2ccc(C(F)(F)F)cc2Cl)ccc1[N+](=O)[O-]
20 | 131 to 132 | COC(=O)CCCCCNC(=O)C[C@H]1O[C@H](c2cccc(OC)c2OC)c2cc(Cl)ccc2N(CC(C)(C)CO)C1=O

Row | melting point [°C] | SMILES
21 | 68 to 69 | CCOC(=O)CCC(=O)c1ccc(Cl)cc1O
22 | 98 to 99 | C=CCCCCCCCCNC(=O)N[C@H]1CCCNC(=O)C1
23 | 107 | CCCCCCCCCCC/C=C/c1ccc(C=CC(=O)O)cc1
24 | 66 to 70 | COC(=O)[C@@H]1CCCN1C(=O)CCC(=O)c1ccccc1
25 | 80 to 82 | CC(=O)Nc1c(C(=O)c2ccccc2)[nH]c2ccc(F)cc12
26 | 38 to 41 | CCCCCCCCCCCCCCOCCCSCCCO
27 | 119 | N#Cc1cccc(NCCC(=O)O)c1
28 | 53 to 55 | CCCCCCCCCCCCCCCCSCC(CO)OC(=O)NC (configuration not stated)
29 | 168 | CCc1nc(NC(=S)NCCc2ccccc2Oc2ccccc2)cs1
30 | 109 to 110 | CN(C)C(=O)Cc1ccccc1Nc1c(F)c(F)cc(F)c1F
31 | 175 to 176 | CCN(CC)C(=O)NCCc1cccc(-c2nc(=O)c3ccccc3s2)n1
32 | 220 to 221 | COc1ccc(C(=O)Nc2ccccc2)cc1Nc1cccc([N+](=O)[O-])c1
33 | 90 to 93 | CN(C(CCn1c(=O)cc(Cl)n(C)c1=O)C(=O)NO)S(=O)(=O)c1ccc(Oc2ccccc2)cc1 (configuration not stated)
34 | 183 to 184 | O=C(O)c1ccc(CO)c2ccccc12
35 | 163 to 167 | COC(=O)C=Cc1ccc(C=CC(=O)OC)cc1
36 | 183 to 185 | Cc1cc(C)cc(NC(=O)Cc2ccc(O)cc2)c1
37 | 196 to 197 | CN(C)C(=O)C(Cc1ccccc1)NC(=O)Nc1n[nH]c(=S)s1 (configuration not stated)
38 | 98 to 99 | CCN(CC)CCNC(=O)N1CCCC(S(=O)(=O)c2ccc(OCCOC)cc2)C1 (configuration not stated)
39 | 131 to 134 | O=C(O)C1CSC(c2ccccc2OCCCO[N+](=O)[O-])N1 (configuration not stated)
40 | 60 to 62 | CCOC(=O)/C=C/c1ccccc1C#N

The next lines start with the compound.

Row | SMILES | melting point [°C]
41 | COc1cc(OC)c(/C=C/S(=O)(=O)Cc2cnc(OC)c([N+](=O)[O-])c2)c(OC)c1 | 183 to 186
42 | CCS(=O)c1cnc(Cl)c(Cl)c1 (configuration not stated) | 78 to 79
43 | NS(=O)(=O)CCCSc1ccc2nc(Cl)cn2n1 | 117 to 118
44 | COc1ccc(C2=C(C#N)C(c3ccccc3OC)c3c[nH]nc3N2)cc1 (configuration not stated) | 149
45 | CN(C)c1nc2n(n1)CCc1ccccc1-2 | 66 to 68
46 | O=C1NCCn2c1nc1c2CCCC1 | > 250
47 | NCC(c1ccc(Cl)c(Cl)c1)C1CCCCC1O (mixture of isomers) | 117 to 118
48 | CCN(C)c1nc(-c2ccc(OC)cc2)nc2sc(C#N)c(C)c12 | 122 to 123
49 | COc1cc2nc(-c3cc(C)c(O)c(C)c3)[nH]c(=O)c2cc1OC | > 300
50 | COc1nc2cc(Cl)c(Cl)c(-n3c(CO)nnc3-c3cccnc3)c2nc1OC | 209 to 210
51 | CCc1c(Cl)sc2[nH]c(=O)c(=O)[nH]c12 | 282 to 284
52 | O=C(O)COc1c(Br)cc(C(=O)c2c(Cc3ccccc3)oc3ccccc23)cc1Br | 165 to 167
53 | O=C(CC1CC2CCC1C2)Nc1ccccc1C(c1ccc(O)cc1)c1ccc(O)cc1 (configuration not stated) | 125 to 127
54 | N[C@@H](Cc1ccc(F)cc1)[C@H](O)c1ccc(F)cc1 (racemic) | 66 to 67
55 | CCN(CC)CCOc1ccc(-n2c(-c3ccccc3)cc(=O)c3ccccc32)cc1 | 115 to 117
56 | CC1(C)Cc2sccc2C1N=CNC#N (configuration not stated) | 118 to 119
57 | COC(=O)Oc1ccc(N=Cc2ccc(C#N)cc2)cc1 | 145 to 146
58 | CCC(CC)Oc1cc(C)nc(Oc2c(C)cc(C(=O)O)cc2C)c1C | 168
59 | CC(C)(C)OC(=O)NCC(N)C(=O)N1CCCCC1 (configuration not stated) | 87 to 90
60 | CCC12CC(Cl)C3C4CCC(=O)C=C4CCC3C1C(O)CC2=O (configuration not stated) | 169 to 170
61 | Nc1nsnc1-c1c(Cl)cccc1Cl | 95 to 97

Row | SMILES | melting point [°C]
62 | OCCC1(c2ccc(Cl)c(Cl)c2)CCCNC1 (configuration not stated) | 122
63 | COc1ccc(Cl)c2c1CN(Nc1ccncc1)C2 | 229 to 230
64 | COC(=O)C(C)Oc1ccc(COc2ccc(Cl)cc2Cl)cc1 (configuration not stated) | 64
65 | COc1ccc2ccc(O)c(-c3nnc(Cl)c4ccccc34)c2c1 | > 210
66 | CC1(C)CC(=O)C1(Cl)CC(Br)(Br)Br (configuration not stated) | 95 to 97
67 | c1ccc(-n2ncc3c2-c2ccccc2C3)cc1 | 119 to 120
68 | O=c1c(-c2ccccc2Cl)cc2cnc(NC3C4CN(Cc5ccccc5)CC43)nc2n1C1CCNC1 (configuration not stated) | 203 to 206
69 | CN1CCN(C2=NC(=O)C(=Cc3cccc(-c4ccc(O)c(C56CC7CC(CC(C7)C5)C6)c4)c3)S2)CC1 | 291 to 294
70 | COc1cc(CCC2(CCc3ccc(O)c(OC)c3)CC(O)=C(Sc3cc(C)c(OCCO)cc3C(C)(C)C)C(=O)O2)ccc1O | 76 to 82
71 | CC1Oc2c(F)cc(CN3CCN(c4ccc(C(=O)NC5CC5)cc4)CC3)cc2NC1=O (configuration not stated) | 108 to 110
72 | CCn1cc(C(=O)O)c(=O)c2cc(F)c(N3CCNC(Cn4cccc4)C3)cc21 (configuration not stated) | 185 to 188
73 | COc1ccccc1Oc1c(Cl)nc(N2CCOCC2)nc1NS(=O)(=O)c1ccc(C(C)C)cn1 | 168 to 176
74 | CC12CC(=O)C3C(CCC4CC(=O)CCC43C)C1CCC2C(=O)CBr (configuration not stated) | 170
75 | COc1ccc(C=Cc2cc(OC)c(OC)c(OC)c2)c(O)c1O | 114 to 115
76 | S=c1[nH]cnn1C1CCc2ccccc2C1 (configuration not stated) | 200
77 | CCN(CC)C(=O)C1CCC2C3CC=C4N(C)C(=O)CCC4(C)C3CCC12C (configuration not stated) | 115 to 118
78 | COc1ccc(C(Cc2ccc(NC(=O)OC(C)(C)C)cc2)c2ccccc2)cc1OC1CCCC1 (configuration not stated) | 123
79 | C[C@H]1CCCC(C)(C)[C@@H]1[C@H](O)c1ccc2c(c1)CCN(C(N)=O)C2 | 99.1 to 101
80 | CN(CC(=O)O)C(=O)CCc1nc2c(F)c(F)cc(F)c2s1 | 138 to 140
81 | CC(C)N1C(=O)N(c2ccc(F)cc2)CSC1=NC(C)(C)C | 109 to 110
82 | OCc1c(OCc2ccccc2)ccc2c1CC[C@@H](NC1CCC1)[C@@H]2O (relative stereo) | 156 to 158

Row | SMILES | melting point [°C]
83 | CCC#CC1(C(F)(F)F)OC(=O)Nc2ccc(OC)cc21 (configuration not stated) | 161 to 162
84 | Cn1c2ccccc2c(=O)c2c(Br)cccc21 | 219 to 221
85 | CC(OC(=O)ON=C(C#N)c1ccccc1)C1CC1 (configuration not stated) | 65 to 67
86 | Cn1cc(CO)c(=O)c2ccc(C(F)(F)F)cc21 | 172 to 175
87 | Cc1cc(C(C)(C)O)ccc1-c1ccccc1 | 60 to 64
88 | COC(=O)c1ccccc1-c1noc(-c2ccc(OC)cc2)n1 | 73 to 75
89 | Cc1c(Cc2cccc(C(F)(F)F)c2)oc2c(-c3cccc(C(=O)NCC(N)=O)c3)cccc12 | 194 to 195
90 | CC(=O)OC1CSC(Oc2cncc(C#N)c2)C(OC(C)=O)C1OC(C)=O (configuration not stated) | 147
91 | O=C1c2cc3nnn(CCc4cccc(F)c4)c(=O)c3cc2OC2OCCN12 (configuration not stated) | 191 to 193
92 | O=C(Oc1c(F)c(F)c(F)c(F)c1F)c1ccccn1 | 62 to 64
93 | CC(Oc1cc(Oc2ccc(C(F)(F)F)cc2Cl)ccc1C#N)C(N)=O (configuration not stated) | 134 to 137
94 | COC(=O)c1ccccc1-c1cc(-c2ccc(Cl)cc2)no1 | 89.5 to 91
95 | C=CCN1CCN(C(C#CSc2ccccc2)=Nc2ccc(OC)cc2)CC1 | 75
96 | CN1C(=O)CC(c2ccccc2)C1C(O)Cc1cccc(Cl)c1 (configuration not stated) | 50 to 52
97 | CC(C)(C)NCC(O)C(Cl)(Cl)Cl (configuration not stated) | 48 to 50
98 | O=C(Nc1ccc(F)cc1)Nc1nc(Nc2ccc(Cl)cc2)sc1C(=O)c1ccc(Cl)cc1Cl | > 280
99 | CC(C)(C)c1ccc(/C=N/OCCOc2ccc(C(=O)O)c(OC(=O)c3ccc(C(C)(C)C)cc3)c2)cc1 | 148 to 150
100 | CCCc1nc2ccccc2n1CCC1CCN(c2ccccc2-c2nnn[nH]2)CC1 | 231 to 233
101 | Cc1cc(C(=O)N(C)C)ncc1C(c1cc(F)ccc1F)S(=O)(=O)c1ccc(Cl)cc1 (configuration not stated) | 207 to 208
102 | O=C1c2ccc(SCCO)cc2C(=O)c2cc3ccccc3cc21 | 195 to 196
